# ChEMBL document CHEMBL4118032, “Geranylpyrrol A and Piericidin F from Streptomyces sp. CHQ-64 ΔrdmF” (J Nat Prod, 2017)
# Counter-ions that a name gives are not always drawn.
# What was measured:
# Format in all cases: functional, cell-based
# NCI-H1975 = assay: Cytotoxicity against human NCI-H1975 cells after 24 hrs by sulforhodamine B assay; conditions: NCI-H1975, 24 h
# K562 = assay: Cytotoxicity against human K562 cells after 72 hrs by MTT assay; conditions: K562, 72 h
# HCT-116 = assay: Cytotoxicity against human HCT116 cells after 24 hrs by sulforhodamine B assay; conditions: HCT-116, 24 h
# HeLa = assay: Cytotoxicity against human HeLa cells after 24 hrs by sulforhodamine B assay
# [1] = Cytotoxicity against human MCF7/ADM cells after 24 hrs by sulforhodamine B assay
# NB-4 = assay: Cytotoxicity against human NB4 cells after 72 hrs by MTT assay; conditions: NB-4, 72 h
# A549 = assay: Cytotoxicity against human A549 cells after 24 hrs by sulforhodamine B assay; conditions: A549, 24 h
# HL-60 = assay: Cytotoxicity against human HL60 cells after 72 hrs by MTT assay; conditions: HL-60, 72 h
SMILES,IC50 (NCI-H1975) [µM],IC50 (K562) [µM],IC50 (HCT-116) [µM],IC50 (HeLa) [µM],IC50 [1] [µM],IC50 (NB-4) [µM],IC50 (A549) [µM],IC50 (HL-60) [µM]
C/C=C(\C)[C@H](OC)[C@H](C)/C=C(C)/C=C/C/C(C)=C/Cc1nc(OC)cc(O)c1C,0.49,> 30,> 30,0.003,> 30,0.037,0.56,> 30
COC(=O)c1[nH]cc(C/C=C(\C)CCC=C(C)C)c1NC(C)=O,> 30,> 30,> 30,> 30,> 30,> 30,> 30,> 30
COc1cccc2c1C(=O)c1c(O)c3c(c(O)c1C2=O)C[C@@](O)(C(=O)CO)C[C@@H]3O[C@H]1C[C@H](N)[C@H](O)[C@H](C)O1 [DOXORUBICIN HYDROCHLORIDE],0.2,,,,25.2,0.4,,
